Series [1] has as its target MRP1 (Homo sapiens, UniProt P33527). Put plainly: cell-based.
Description: (§4) The method was adapted from Eneroth et al. [27] and Korjamo et al. [28] with minor modifications. Briefly, each cell line was seeded into a black Cultureplate (PerkinElmer) 96/wells plate with 100 μl medium and allowed to become confluent overnight. Test compounds were solubilized in 100 μl of culture medium and added. […] In treated wells the increase of fluorescence as compared to basal level was measured. The half maximal effective concentration (EC50) values were determined by fitting the fluorescence increase percentage versus log[dose]
Series [2] relates to Caco-2 cells. As to the kind of experiment: Cell ATP availability assay. It counts as cell-based.
Description: Caco-2 cells were seeded into 96-well microplate in 100 μL of complete medium at a density 2×10^4 cells/well. The plate was incubated O/N in a humidified atmosphere (5% CO2 at 37°C). The medium was removed and 100 μL of complete medium were added, in the presence or absence of different concentrations of test compounds. The plate was again incubated for 2 h in a humidified atmosphere. Then, 50 μl of mammalian cell lysis solution were added to all wells and the plate stirred for 5 min in an orbital shaker. In all wells, 50 μl of substrate solution were added, and the plate stirred for 5 min as above reported. The plate was dark adapted for 10 min and the luminescence measured in Victor3 (PerkinElmer) [26].
Series [3] deals with UMUC3. As to the kind of experiment: Cell anti-proliferative effect (MTT test). The conditions noted are these: Homo sapiens, read-out: EC50 antiproliferative effect. It counts as cell-based. How it is done:
(§1) UMUC-3, 5637, TCC sup cells and J82 (ATCC, Manassas, VA, USA), derived from human transitional cell carcinoma of the bladder, were routinely cultured in MEM supplemented with 10% fetal bovine serum, 2 mM glutamine, 100 U/mL penicillin, 100 μg/mL streptomycin, 1X NEAA and 1 mM sodium pyruvate. All components were purchased form Invitrogen Corportion (Cergy Pontoise, France), in a humidified incubator at 37°C with a 5% CO2 atmosphere. Caco-2 (IRCCS “S. De Bellis”, Castellana Grotte, Italy), MDCK-MDR1, MDCK-MRP1 (gift of Prof. P. Borst, NKI-AVL Institute, Amsterdam, Netherlands) and MDCK-BCRP cells (gift of Dr. A. Schinkel, NKI-AVL Institute, Amsterdam, Netherlands) were grown in DMEM medium with 10% heat-inactivated fetal calf serum, 100 U/mL penicillin, 100 μg/mL streptomycin and 2 mM L-glutamine (Invitrogen) in a humidified incubator at 37°C with a 5% CO2 atmosphere. The cells were trypsinized twice a week with trypsin/ethylenediaminetetraacetic acid (EDTA) (0.05%/0.02%) and the medium was changed twice a week.
(§2) Afterwords, 10 μl of 3-[4,5-dimethylthiazol-2-yl]-2,5-diphenyltetrazoliumbromide (MTT) freshly prepared solution (5 mg/ml in PBS) (Sigma) was added in each well, and the plate was incubated in a humidified atmosphere 5% CO2 at 37° for 3–4 h. MTT solution was removed and 200 μL of EtOH/DMSO (1:1) was added to each well to dissolve the blue formazan solid crystals. The optical density was measured at 570 nm and 650 nm wavelenghts using Victor3 (PerkinElmer, Waltham, MA, USA). The results are expressed as EC50 values, obtained from non-linear iterative curve fitting by Prism v.3.0, GraphPad software (GraphPad Software, Inc. San Diego, USA).

For series [4], the system named is TCC sup. Put plainly: Cell anti-proliferative effect (MTT test). Type of series: cell-based. Conditions: Homo sapiens, 48 h, read-out: EC50 antiproliferative effect. How it is done: as §1, §2
Series [5] relates to J82. Put plainly: Cell anti-proliferative effect (MTT test). Conditions: Homo sapiens, read-out: EC50 antiproliferative effect. Type of series: cell-based. How it is done: as §1, §2
The subject of series [6] is 5637. As to the kind of experiment: Cell anti-proliferative effect (MTT test). It counts as cell-based. The conditions noted are these: Homo sapiens, 48 h, read-out: EC50 antiproliferative effect. The procedure: as §1, §2
Series [7] deals with P-gp (Homo sapiens, UniProt P08183). Put plainly: Drug transport experiment, Caco-2 monolayer apparent permeability. It counts as in vitro ADME.
Chain of P-gp (P08183 whole entry): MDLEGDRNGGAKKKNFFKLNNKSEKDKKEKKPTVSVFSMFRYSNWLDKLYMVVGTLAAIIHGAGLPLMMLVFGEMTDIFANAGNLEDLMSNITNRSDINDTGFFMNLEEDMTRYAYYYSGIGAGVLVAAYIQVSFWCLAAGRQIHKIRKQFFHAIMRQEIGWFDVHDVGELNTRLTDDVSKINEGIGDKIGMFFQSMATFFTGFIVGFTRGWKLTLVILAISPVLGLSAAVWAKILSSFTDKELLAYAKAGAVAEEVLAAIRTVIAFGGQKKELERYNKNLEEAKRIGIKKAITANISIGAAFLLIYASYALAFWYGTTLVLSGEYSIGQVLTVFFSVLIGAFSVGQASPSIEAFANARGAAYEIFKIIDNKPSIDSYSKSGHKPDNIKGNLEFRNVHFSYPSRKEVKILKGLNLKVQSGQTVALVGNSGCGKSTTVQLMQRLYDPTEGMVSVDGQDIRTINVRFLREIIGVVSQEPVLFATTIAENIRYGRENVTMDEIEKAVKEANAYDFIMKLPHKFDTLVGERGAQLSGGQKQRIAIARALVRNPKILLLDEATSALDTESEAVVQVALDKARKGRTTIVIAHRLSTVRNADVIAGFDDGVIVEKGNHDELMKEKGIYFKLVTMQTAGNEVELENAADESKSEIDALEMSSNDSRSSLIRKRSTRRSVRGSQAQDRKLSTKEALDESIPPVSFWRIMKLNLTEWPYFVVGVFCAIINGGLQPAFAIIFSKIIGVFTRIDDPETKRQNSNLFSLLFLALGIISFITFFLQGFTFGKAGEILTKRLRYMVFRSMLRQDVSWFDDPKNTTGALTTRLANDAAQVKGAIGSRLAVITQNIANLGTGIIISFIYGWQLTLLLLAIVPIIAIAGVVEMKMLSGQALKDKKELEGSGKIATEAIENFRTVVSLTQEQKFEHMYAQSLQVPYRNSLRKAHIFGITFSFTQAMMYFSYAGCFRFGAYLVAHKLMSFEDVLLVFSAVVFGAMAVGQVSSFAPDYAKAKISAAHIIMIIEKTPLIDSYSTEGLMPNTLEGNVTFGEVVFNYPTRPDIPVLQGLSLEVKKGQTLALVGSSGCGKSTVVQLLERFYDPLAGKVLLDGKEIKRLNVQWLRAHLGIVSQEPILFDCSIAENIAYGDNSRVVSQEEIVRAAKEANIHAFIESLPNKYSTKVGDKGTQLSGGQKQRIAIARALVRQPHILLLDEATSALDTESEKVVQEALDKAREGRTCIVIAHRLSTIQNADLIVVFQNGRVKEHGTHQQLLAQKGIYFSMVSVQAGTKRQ
The test system of series [8] is 5637 si-CX. As to the kind of experiment: Cell anti-proliferative effect (MTT test). The conditions noted are these: Homo sapiens, 48 h, read-out: EC50 antiproliferative effect. Type of series: cell-based. The procedure:
UMUC-3, 5637, TCC sup cells and J82 (ATCC, Manassas, VA, USA), derived from human transitional cell carcinoma of the bladder, were routinely cultured in MEM supplemented with 10% fetal bovine serum, 2 mM glutamine, 100 U/mL penicillin, 100 μg/mL streptomycin, 1X NEAA and 1 mM sodium pyruvate. All components were purchased form Invitrogen Corportion (Cergy Pontoise, France), in a humidified incubator at 37°C with a 5% CO2 atmosphere. Caco-2 (IRCCS “S. De Bellis”, Castellana Grotte, Italy), MDCK-MDR1, MDCK-MRP1 (gift of Prof. P. Borst, NKI-AVL Institute, Amsterdam, Netherlands) and MDCK-BCRP cells (gift of Dr. A. Schinkel, NKI-AVL Institute, Amsterdam, Netherlands) were grown in DMEM medium with 10% heat-inactivated fetal calf serum, 100 U/mL penicillin, 100 μg/mL streptomycin and 2 mM L-glutamine (Invitrogen) in a humidified incubator at 37°C with a 5% CO2 atmosphere. […]
Afterwords, 10 μl of 3-[4,5-dimethylthiazol-2-yl]-2,5-diphenyltetrazoliumbromide (MTT) freshly prepared solution (5 mg/ml in PBS) (Sigma) was added in each well, and the plate was incubated in a humidified atmosphere 5% CO2 at 37° for 3–4 h. […] The optical density was measured at 570 nm and 650 nm wavelenghts using Victor3 (PerkinElmer, Waltham, MA, USA). The results are expressed as EC50 values, obtained from non-linear iterative curve fitting by Prism v.3.0, GraphPad software (GraphPad Software, Inc. San Diego, USA).

Series [9] has as its system UMUC-3 cells. As to the kind of experiment: Intracellular mitomycin C accumulation (flow cytometry). It counts as cell-based, human. The conditions noted are these: UMUC-3, 1 day celecoxib then 1 day MMC and celecoxib. How it is done: (§3) After incubation, the cell medium was removed and trypsin/EDTA was used to detach the cells from the plates. Cells were harvested, washed twice in ice-cold PBS (pH 7.4), and placed on ice (<1 hour) until analysis. Analysis was performed using a 530/30 filter (FL1-H [height of fluorescence intensity]). Fluorescence measurements of individual cells were done with a Becton Dickinson FACScan equipped with an […] argon laser. Analysis was gated to include single cells, based on forward and side light scatter, and was based on the acquisition of data from 10,000 cells.

Series [10] concerns UMUC-3-CX cells. Described as above. Type of series: cell-based, human. The conditions noted are these: 1 day celecoxib then 1 day MMC and celecoxib. How it is done: as §3
In series [11] the target is T1, BCRP (Homo sapiens, UniProt Q9UNQ0).
T1 sequence (Q9UNQ0 1-655): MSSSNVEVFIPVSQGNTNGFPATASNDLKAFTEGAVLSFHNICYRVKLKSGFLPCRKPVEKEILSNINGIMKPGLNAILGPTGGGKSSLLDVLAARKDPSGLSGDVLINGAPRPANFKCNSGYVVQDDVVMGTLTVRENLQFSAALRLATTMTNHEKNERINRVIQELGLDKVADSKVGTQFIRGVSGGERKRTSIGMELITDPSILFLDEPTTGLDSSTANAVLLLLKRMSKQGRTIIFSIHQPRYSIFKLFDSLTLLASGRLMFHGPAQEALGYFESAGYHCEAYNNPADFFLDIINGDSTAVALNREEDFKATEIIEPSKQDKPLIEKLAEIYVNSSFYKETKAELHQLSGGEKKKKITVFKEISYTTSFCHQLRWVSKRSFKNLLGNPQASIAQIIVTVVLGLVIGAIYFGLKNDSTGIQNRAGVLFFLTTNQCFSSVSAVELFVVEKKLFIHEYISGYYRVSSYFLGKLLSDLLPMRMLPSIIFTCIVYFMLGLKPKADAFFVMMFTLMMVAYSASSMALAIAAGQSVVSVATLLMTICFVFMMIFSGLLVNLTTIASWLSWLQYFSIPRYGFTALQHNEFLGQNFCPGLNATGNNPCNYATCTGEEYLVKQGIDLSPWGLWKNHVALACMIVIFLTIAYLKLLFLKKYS
Put plainly: cell-based.
Description: as §4

The subject of series [12] is UMUC-3- CX. As to the kind of experiment: Cell anti-proliferative effect (MTT test). Type of series: cell-based, human. The conditions noted are these: for EC50: Homo sapiens, read-out: EC50 antiproliferative effect. How it is done: as §1
The pSG5-COX-2 plasmid, which contains a full-length human COX-2 cDNA in the pSG expression vector [23], was used for COX-2 transfection. The plasmid DNA was introduced into UMUC-3 cells using Lipofectamine LTX (Invitrogen). Briefly, 2.5 μg of plasmid DNA and 6.25 μl of Lipofectamine LTX were combined in 500 μl of OpTI-MEM*I reduced serum medium (Invitrogen) and allowed to stand at room temperature for 30 minutes. UMUC-3 cells were plated at 1X105 cells/well in six-well plates. After overnight attachment, the Lipofectamine mixture was applied to cells. After 5 hours of transfection, the medium was removed and complete medium was added. After 48 hours, geneticin G418 (Invitrogen) was added to cells at a concentration of […]. Cell lines were obtained from individual colonies using cloning cylinders. UMUC-3-CX overexpressing cells were obtained and were continuously cultured in complete medium with the addition of 800 μg/ml G418.
as §2

The structures appear in SMILES notation. Like-named read-outs stand apart in the source and are kept apart here. Bounds are passed on as bounds.

Chain of MRP1 (P33527 whole entry): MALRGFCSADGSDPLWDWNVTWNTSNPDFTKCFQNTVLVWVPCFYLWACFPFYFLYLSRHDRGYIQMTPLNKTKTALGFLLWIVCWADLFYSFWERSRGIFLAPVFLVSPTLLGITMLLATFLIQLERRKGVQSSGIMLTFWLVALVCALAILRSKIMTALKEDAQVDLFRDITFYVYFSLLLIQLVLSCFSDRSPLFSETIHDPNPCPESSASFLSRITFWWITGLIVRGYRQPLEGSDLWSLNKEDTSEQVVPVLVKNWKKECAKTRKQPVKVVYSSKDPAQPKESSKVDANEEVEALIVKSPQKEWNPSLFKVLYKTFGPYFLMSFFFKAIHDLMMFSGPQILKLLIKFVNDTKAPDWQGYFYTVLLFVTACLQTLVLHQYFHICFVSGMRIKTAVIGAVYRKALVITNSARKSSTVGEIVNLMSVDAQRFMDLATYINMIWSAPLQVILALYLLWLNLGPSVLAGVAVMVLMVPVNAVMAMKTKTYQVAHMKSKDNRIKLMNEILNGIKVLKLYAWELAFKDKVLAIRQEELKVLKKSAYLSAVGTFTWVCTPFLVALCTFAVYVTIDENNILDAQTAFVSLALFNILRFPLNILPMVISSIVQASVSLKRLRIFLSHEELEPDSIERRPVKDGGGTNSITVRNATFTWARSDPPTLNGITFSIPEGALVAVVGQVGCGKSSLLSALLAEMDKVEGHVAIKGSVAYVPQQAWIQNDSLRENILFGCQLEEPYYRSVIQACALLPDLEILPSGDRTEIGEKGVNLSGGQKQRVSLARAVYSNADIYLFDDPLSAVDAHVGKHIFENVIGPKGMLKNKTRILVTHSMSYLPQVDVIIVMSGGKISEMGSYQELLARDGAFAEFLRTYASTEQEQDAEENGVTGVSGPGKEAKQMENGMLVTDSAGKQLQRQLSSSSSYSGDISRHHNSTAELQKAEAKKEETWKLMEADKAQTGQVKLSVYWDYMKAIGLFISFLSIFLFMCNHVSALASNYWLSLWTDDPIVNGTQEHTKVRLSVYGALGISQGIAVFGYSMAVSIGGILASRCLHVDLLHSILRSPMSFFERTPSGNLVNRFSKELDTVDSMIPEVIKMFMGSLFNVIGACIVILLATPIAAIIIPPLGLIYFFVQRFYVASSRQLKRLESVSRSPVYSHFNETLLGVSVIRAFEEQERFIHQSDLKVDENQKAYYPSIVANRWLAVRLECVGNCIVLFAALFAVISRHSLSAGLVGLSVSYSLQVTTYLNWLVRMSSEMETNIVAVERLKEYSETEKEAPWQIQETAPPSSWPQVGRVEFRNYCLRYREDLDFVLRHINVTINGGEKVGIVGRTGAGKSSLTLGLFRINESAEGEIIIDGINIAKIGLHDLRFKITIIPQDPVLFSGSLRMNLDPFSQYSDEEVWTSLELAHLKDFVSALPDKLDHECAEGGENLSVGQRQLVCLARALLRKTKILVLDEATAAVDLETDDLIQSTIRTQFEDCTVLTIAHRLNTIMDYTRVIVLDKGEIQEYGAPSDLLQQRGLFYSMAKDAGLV

For `Cc1ccc(-c2cc(C(F)(F)F)nn2-c2ccc(S(N)(=O)=O)cc2)cc1` [Celecoxib, celecoxib], the EC50 in series [1] is 10.1 ± 0.5 µM; in series [3] (UMUC3, 48 h) it was 14.2 ± 0.7 µM; in series [4] (TCC-SUP), 15.7 ± 0.5 µM; in series [5] (J82, 48 h), 11.6 ± 0.31 µM; in series [6] it was more than 50 µM; in series [8] it was more than 50 µM. In addition, the EC50 in [11] stood at 24.1 ± 1.2 µM; in series [12] (UMUC3, 48 h), 16.3 ± 0.8 µM. In addition, in series [2], the ATP cell depletion result is “decreased ATP levels in a time- and dose-dependent fashion”. Moreover, the “Classification of P-gp interaction (Polli's classification)” value in series [7] (from drug transport, substrate transport inhibition and ATP cell depletion assays combined) is reported as “P-gp unambiguous substrate”. Further, the Papp A→B at 120 min, 100 µM in series [7] (human, Caco-2 monolayer, apical-basolateral flux, 120 min) was 13.7 ×10⁻⁶ cm/s. Also, the apparent permeability from basolateral to apical (Papp B→A) at 120 min, 100 µM in [7] (human, Caco-2 monolayer, basolateral-apical flux, 120 min) was found to be 103 ×10⁻⁶ cm/s. Also, the results for the “Effect on MMC intracellular accumulation” value in [9] and in series [10] were “not seen” and “increase of intracellular MMC concentration”, respectively.
With `CO[C@@]12[C@H](COC(N)=O)C3=C(C(=O)C(C)=C(N)C3=O)N1C[C@@H]1N[C@@H]12` [Mitomycin C], the 50% effective concentration (EC50) came out at 1.69 ± 0.09 µM in series [3] (UMUC3, compound alone, 48 h); 0.83 ± 0.07 µM in series [4] (TCC sup, compound alone); 0.64 ± 0.09 µM in [5] (J82, compound alone, 48 h); 0.93 ± 0.04 µM in series [6] (5637, compound alone); 0.62 ± 0.05 µM in series [8] (5637 si-CX, compound alone); 13 ± 1 µM in [12] (UMUC3, UMUC-3-CX, compound alone, 48 h). Also, the “Fold improvement of MMC anti-proliferative activity by co-administration of celecoxib compared to MMC alone” value in [12] (UMUC-3-CX, celecoxib 1 μM, 5 μM and 10 μM, 48 h, listed as MMC) is 2–3 fold. Further, the “Anti-proliferative effect of MMC alone, fold greater in UMUC-3 than in UMUC-3-CX” value in [12] (UMUC-3 versus UMUC-3-CX, 48 h) stood at 8 fold.

For the origin of these results see paper PMC3669624 (Molecular Cancer, 2013).
